{"source": "paper PMC5884906", "about": "“Single Administration of HBK-15—a Triple 5-HT1A, 5-HT7, and 5-HT3 Receptor Antagonist—Reverses Depressive-Like Behaviors in Mouse Model of Depression Induced by Corticosterone” (Molecular Neurobiology, 2017)", "key": {"[1]": {"system": "corticosterone-treated mice", "assay": "forced swim test, single administration, corticosterone model", "assay_type": "in vivo", "conditions": "single 1 mg/kg i.p., 30 min before the test", "protocol": "(§1) Mice were injected with corticosterone (s.c., 20 mg/kg) at random times during the light phase for consecutive 21 days (Fig. 1c). The dose and route of administration of corticosterone were based on studies performed by Zhao and colleagues. After the end of the procedure, next day 30 min before the test, corticosterone-treated mice were given (i.p.) saline, HBK-15 (1.25 mg/kg), fluoxetine (10 mg/kg), or ketamine (1 mg/kg) (Fig. 1c). Control mice received (i.p.) saline. The experimental groups consisted of eight randomly selected animals. We chose the dose of HBK-15 that was active in the chronic experiments (i.e., 1.25 mg/kg). The dose of ketamine was based on the studies performed by Pazini and colleagues. Animals were tested in the forced swim test and spontaneous locomotor activity test. After behavioral testing, mice were scarified and their hippocampi collected for biochemical analysis.\nForced swim test was performed according to the method described by Porsolt and colleagues and previously described. Mice were placed individually for 6 min in glass cylinders (height 25 cm, diameter 10 cm) containing […] (23–25 °C). The total time of immobility was recorded during the final 4 min of the test. The experiments were recorded and scored using aLab.io software by a trained observer blind to the treatments."}, "[2]": {"system": "BDNF level in the hippocampus", "assay": "BDNF level in the hippocampus (ELISA), single administration", "assay_type": "in vivo, mice", "conditions": "single 1 mg/kg i.p., corticosterone-treated mice", "protocol": "as §1\nAfter the behavioral assessments, mice were sacrificed, and their brains were rapidly removed and chilled in an ice-cold saline solution. The hippocampi were dissected on a cold plate, frozen, and stored at −80 °C until assay. On the day of experiments, tissues were thawed on ice and homogenized (1:9 w/v) in phosphate-buffered saline (4 °C) and protease inhibitor cocktail was added. The 10% homogenates were prepared and homogenized for 30 s with TissueRuptor homogenizer. The homogenized tissues were centrifuged (2500×g at 4 °C for 20 min), and the supernatants were collected for further assays.\nProtein concentrations of BDNF and NGF in homogenates from hippocampi were determined using the enzyme-linked immunosorbent assay (ELISA) kits (BDNF: DZE201020014, SunRed Biotechnology Company; NGF: MBS825100, MyBioSource) according to the manufacturer’s instructions. […] The samples were analyzed in duplicates, and the mean concentrations were calculated. […] The intensity of the color was read at 450 nm. Absorbance was measured in a multifunction plate reader (POLARstar Omega, BMG Labtech, Germany). […]"}, "[3]": {"system": "corticosterone-treated mice", "assay": "spontaneous locomotor activity, single administration", "assay_type": "in vivo", "conditions": "single 1 mg/kg i.p. in corticosterone-treated mice; 4 min", "protocol": "as §1, with “After the end of the procedure, next day 30 min before the test, corticosterone-treated mice were given (i.p.) saline, HBK-15 (1.25 mg/kg), fluoxetine (10 mg/kg), or ketamine (1 mg/kg) (Fig. 1c).” left out\nThe locomotor activity was performed as previously described. Locomotor activity was recorded individually for each mouse using activity cages made of clear Perspex (40 cm × 40 cm × 31 cm, Activity Cage 7441, Ugo Basile, Italy). The cages were supplied with I.R. horizontal beam emitters connected to a counter for the recording of light-beam interruptions. Each mouse was placed in a cage for a 30-min habituation period. After that time, the number of crossings of photobeams was measured for 6 min (chronic studies) or for 4 min (acute experiments; i.e., the time equal to the observation period in the forced swim test). The cages were disinfected with 70% ethanol after each mouse."}, "[4]": {"target": "T1, 5-HT3 receptors expressed in guinea pig ileum (Cavia porcellus, UniProt O70212)", "T1 construct": "A segment (15 cm) of male guinea pig ileum was excised from the small intestine; from tissue; host or cells: isolated male guinea pig ileum segments in an organ bath", "T1 sequence (O70212 20-490)": "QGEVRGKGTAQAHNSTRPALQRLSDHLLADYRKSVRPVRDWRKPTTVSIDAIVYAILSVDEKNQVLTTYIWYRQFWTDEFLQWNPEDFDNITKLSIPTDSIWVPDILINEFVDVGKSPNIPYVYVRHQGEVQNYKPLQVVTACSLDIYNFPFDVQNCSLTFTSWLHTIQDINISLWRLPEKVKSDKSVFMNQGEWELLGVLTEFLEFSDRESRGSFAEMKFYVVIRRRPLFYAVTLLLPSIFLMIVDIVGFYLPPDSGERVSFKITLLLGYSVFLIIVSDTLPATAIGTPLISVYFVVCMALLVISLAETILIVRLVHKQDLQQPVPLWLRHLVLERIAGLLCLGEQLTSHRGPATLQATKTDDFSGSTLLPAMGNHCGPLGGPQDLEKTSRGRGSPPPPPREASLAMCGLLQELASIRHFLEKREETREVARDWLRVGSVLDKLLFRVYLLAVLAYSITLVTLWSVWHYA", "set-up": "method as in PMID 25847619", "conditions": "functional affinity; cited from earlier work"}}, "note": "Marks after values point to notes of the source that are not given here.", "data": [{"smiles": "CNC1(c2ccccc2Cl)CCCCC1=O", "note": "(stereo not shown) [ketamine]", "values": [{"measurement": "effect on corticosterone-induced increase in immobility", "setting": "[1]", "result": "reversed an increase in immobility"}, {"measurement": "increase in BDNF level in the hippocampus compared with controls", "setting": "[2]", "result": 33, "unit": "%"}, {"measurement": "Number of crossings ± S.E.M", "setting": "[3]", "result": "248.7 ± 25.3"}]}, {"smiles": "Cc1nccn1CC1CCc2c(c3ccccc3n2C)C1=O", "note": "(stereo not shown) [Ondansetron]", "values": [{"measurement": "5-HT3 receptor pK B ± S.E.M", "setting": "[4]", "result": "7.111 ± 0.12^a"}]}]}
